Measured values reported in PubChem BioAssay AID330 (DTP/NCI, 2004).
Several values for one entry are separate records, joined by “and”; a condition that tells them apart may be missing. Identical values can stand only once. Toxic doses and inconclusive results are not listed.

Test system: P388 leukemia ip, CD2F1 mice, survival T/C
Assay: NCI In Vivo Anticancer Drug Screen. Data for tumor model P388 Leukemia (intraperitoneal) in CD2F1 (CDF1) mice
Settings: endpoint: median survival time, higher = longer survival
Method in brief: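 Mice carrying the transplanted tumor received test compound or vehicle. Survival was recorded in each group, and the value is the treated-group measurement divided by that of the vehicle-treated control group.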

[1] = dose: 100.0 mg/kg/injection, schedule: Q01DX009 (ip), vehicle: saline
[2] = dose: 200.0 mg/kg/injection, schedule: Q01DX009 (ip), vehicle: saline
[3] = dose: 400.0 mg/kg/injection, schedule: Q01DX009 (ip), vehicle: saline
[4] = dose: 60.0 mg/kg/injection, schedule: Q01DX005 (ip), vehicle: saline with Tween-80
[5] = dose: 120.0 mg/kg/injection, schedule: Q01DX005 (ip), vehicle: saline with Tween-80
[6] = dose: 60.0 mg/kg/injection, schedule: Q01DX005 (ip), vehicle: saline
[7] = dose: 120.0 mg/kg/injection, schedule: Q01DX005 (ip), vehicle: saline
[8] = dose: 240.0 mg/kg/injection, schedule: Q01DX005 (ip), vehicle: saline
[9] = dose: 50.0 mg/kg/injection, schedule: Q01DX009 (ip), vehicle: saline with Tween-80
[10] = dose: 100.0 mg/kg/injection, schedule: Q01DX009 (ip), vehicle: saline with Tween-80
[11] = dose: 200.0 mg/kg/injection, schedule: Q01DX009 (ip), vehicle: saline with Tween-80
[12] = dose: 100.0 mg/kg/injection, schedule: Q04DX002 (ip), vehicle: Klucel (hydroxypropylcellulose) (HPC)
[13] = dose: 200.0 mg/kg/injection, schedule: Q04DX002 (ip), vehicle: Klucel (hydroxypropylcellulose) (HPC)
[14] = dose: 400.0 mg/kg/injection, schedule: Q04DX002 (ip), vehicle: Klucel (hydroxypropylcellulose) (HPC)
[15] = dose: 50.0 mg/kg/injection, schedule: Q01DX005 (ip), vehicle: saline with Tween-80
[16] = dose: 100.0 mg/kg/injection, schedule: Q01DX005 (ip), vehicle: saline with Tween-80
[17] = dose: 200.0 mg/kg/injection, schedule: Q01DX005 (ip), vehicle: saline with Tween-80
[18] = dose: 100.0 mg/kg/injection, schedule: Q04DX002 (ip), vehicle: saline with Tween-80
[19] = dose: 50.0 mg/kg/injection, schedule: Q01DX005 (ip), vehicle: Klucel (hydroxypropylcellulose) (HPC)
[20] = dose: 100.0 mg/kg/injection, schedule: Q01DX005 (ip), vehicle: Klucel (hydroxypropylcellulose) (HPC)
[21] = dose: 200.0 mg/kg/injection, schedule: Q01DX005 (ip), vehicle: Klucel (hydroxypropylcellulose) (HPC)
[22] = dose: 50.0 mg/kg/injection, schedule: Q01DX009 (ip), vehicle: saline
[23] = dose: 25.0 mg/kg/injection, schedule: Q01DX009 (ip), vehicle: saline

In the case of CCCCCCCC/C=C/CCCCCCCCCCCCBr, the T/C [1] is reported as 90 % of control, the T/C (dose: 100.0 mg/kg/injection, schedule: Q04DX003 (ip), vehicle: saline) is reported as 95 % of control and the T/C [2] is reported as 104 % of control. For the same compound, the T/C (dose: 200.0 mg/kg/injection, schedule: Q04DX003 (ip), vehicle: saline) was 95 % of control, the T/C [3] was 100 % of control and the T/C (dose: 400.0 mg/kg/injection, schedule: Q04DX003 (ip), vehicle: saline) was 100 % of control.
In the case of CNC(=O)C1CCC(=O)N1Cc1c[nH]c2ccccc12 (stereo unspecified), the T/C [4] is reported as 94 % of control, the T/C [5] is reported as 94 % of control and the T/C (dose: 240.0 mg/kg/injection, schedule: Q01DX005 (ip), vehicle: saline with Tween-80) is reported as 92 % of control.
In the case of O=C1CN2C=CC=CC2=NN1, the T/C [6] is reported as 100 % of control, the T/C [7] is reported as 99 % of control and the T/C [8] is reported as 101 % of control.
CCOC1OCN(Cc2ccccc2)CC1(C)C (stereo unspecified) was tested, and the T/C [9] was 114 % of control, the T/C [10] was 115 % of control and the T/C [11] was 117 % of control.
In the case of CN(Cc1cnc2nc(N)nc(N)c2n1)c1c(Cl)cc(C(=O)NC(CCC(=O)O)C(=O)O)cc1Br (stereo unspecified), the T/C (dose: 0.3 mg/kg/injection, schedule: Q01DX003 (ip), vehicle: saline) is reported as 183 % of control, the T/C (dose: 0.4 mg/kg/injection, schedule: Q01DX003 (ip), vehicle: saline) is reported as 177 % of control and the T/C (dose: 100.0 mg/kg/injection, schedule: Q04DX003 (ip), vehicle: saline with Tween-80) is reported as 170 % of control. The T/C (dose: 200.0 mg/kg/injection, schedule: Q04DX003 (ip), vehicle: saline with Tween-80) was 170 % of control, the T/C (dose: 400.0 mg/kg/injection, schedule: Q04DX003 (ip), vehicle: saline with Tween-80) was 162 % of control and 195 % of control and the T/C (dose: 600.0 mg/kg/injection, schedule: Q04DX003 (ip), vehicle: saline with Tween-80) was 154 % of control.
With O=C1CS/C(=N/C(=O)Nc2ccc(Cl)cc2)N1 the T/C (dose: 25.0 mg/kg/injection, schedule: Q04DX002 (ip), vehicle: Klucel (hydroxypropylcellulose) (HPC)) was 90 % of control, the T/C (dose: 50.0 mg/kg/injection, schedule: Q04DX002 (ip), vehicle: Klucel (hydroxypropylcellulose) (HPC)) was 88 % of control and the T/C [12] was 91 % of control. For the same compound, the T/C [13] was 95 % of control and the T/C [14] was 87 % of control.
In the case of CCOC(=O)C1C(COCc2ccccc2)C2CCC1(OC)C=C2C (stereo unspecified), the T/C [15] is reported as 99 % of control, the T/C [16] is reported as 97 % of control and the T/C [17] is reported as 104 % of control.
In the case of COC(=O)C12CCC(CC1C13CCCC(C)(C)C1C(=O)OC3)C(C)C2O (stereo unspecified), the T/C [18] is reported as 96 % of control, the T/C (dose: 200.0 mg/kg/injection, schedule: Q04DX002 (ip), vehicle: saline with Tween-80) is reported as 94 % of control and the T/C (dose: 400.0 mg/kg/injection, schedule: Q04DX002 (ip), vehicle: saline with Tween-80) is reported as 94 % of control.
N#CC1=C(Nc2ccccc2Cl)SC2(CCCC2)NC1=O was tested, and the T/C (dose: 60.0 mg/kg/injection, schedule: Q01DX005 (ip), vehicle: Klucel (hydroxypropylcellulose) (HPC)) was 100 % of control, the T/C (dose: 120.0 mg/kg/injection, schedule: Q01DX005 (ip), vehicle: Klucel (hydroxypropylcellulose) (HPC)) was 100 % of control and the T/C (dose: 240.0 mg/kg/injection, schedule: Q01DX005 (ip), vehicle: Klucel (hydroxypropylcellulose) (HPC)) was 92 % of control.
In the case of CC1=CC2N(C=C1)C(c1ccccc1)=NON2c1cc(C)ccn1 (stereo unspecified), the T/C (dose: 7.5 mg/kg/injection, schedule: Q01DX005 (ip), vehicle: saline with Tween-80) is reported as 91 % of control, the T/C (dose: 15.0 mg/kg/injection, schedule: Q01DX005 (ip), vehicle: saline with Tween-80) is reported as 94 % of control and the T/C (dose: 30.0 mg/kg/injection, schedule: Q01DX005 (ip), vehicle: saline with Tween-80) is reported as 91 % of control.
CC(C)C(Nc1ncnc2c1CCc1ccccc1-2)C(=O)O (stereo unspecified) was tested, and the T/C (dose: 50.0 mg/kg/injection, schedule: Q04DX002 (ip), vehicle: saline with Tween-80) was 95 % of control and the T/C [18] was 100 % of control.
With COC(=O)n1nnc2ncccc21 the T/C [6] was 101 % of control, the T/C [7] was 100 % of control and the T/C [8] was 92 % of control.
CC(=O)OC(CCl)C1OC(CCl)C(OC(C)=O)O1 (stereo unspecified) was tested, and the T/C [9] was 103 % of control, the T/C [10] was 103 % of control and the T/C [11] was 102 % of control.
Cc1ccc2oc(-c3nnc(N)s3)cc(=O)c2c1 was tested, and the T/C [15] was 100 % of control, the T/C [16] was 100 % of control and the T/C [17] was 93 % of control.
For O=[N+]([O-])c1ccc(N=N/C(=N\Nc2ccccc2)c2nc3ccccc3[nH]2)c([N+](=O)[O-])c1, the T/C [15] was 97 % of control, the T/C [16] was 95 % of control and the T/C [17] was 97 % of control.
CCOP(=O)(O)C1CCCC(C)[N-]1.CCOP(=O)(O)C1CCCC(C)[N-]1.CCOP(=O)(O)C1CCCC(C)[N-]1.[Ti+3] (stereo unspecified) was tested, and the T/C (dose: 50.0 mg/kg/injection, schedule: Q01DX001 (ip), vehicle: suspension in saline) was 94 % of control, the T/C (dose: 100.0 mg/kg/injection, schedule: Q01DX001 (ip), vehicle: suspension in saline) was 99 % of control and the T/C (dose: 200.0 mg/kg/injection, schedule: Q01DX001 (ip), vehicle: suspension in saline) was 88 % of control.
In the case of COc1cc2ccccc2c2cc([N+](=O)[O-])oc12, the T/C [19] is reported as 110 % of control, the T/C [20] is reported as 101 % of control and the T/C [21] is reported as 110 % of control.
For Cc1cccc(=O)[n-]1.Cc1cccc(=O)[n-]1.Cc1cccc(=O)[n-]1.Cc1cccc(=O)[n-]1.[Rh+2].[Rh+2], the T/C [12] was 103 % of control, the T/C [13] was 102 % of control and the T/C [14] was 100 % of control.
With COC(=O)C(NC(=O)C(CO)N1C(=O)c2ccccc2C1=O)c1ccccc1 (stereo unspecified) the T/C [15] was 99 % of control and the T/C [16] was 98 % of control.
With CC1C=C(COC(=O)Nc2ccccc2)ON1c1ccccc1 (stereo unspecified) the T/C (dose: 100.0 mg/kg/injection, schedule: Q01DX001 (ip), vehicle: Klucel (hydroxypropylcellulose) (HPC)) was 108 % of control, the T/C (dose: 200.0 mg/kg/injection, schedule: Q01DX001 (ip), vehicle: Klucel (hydroxypropylcellulose) (HPC)) was 97 % of control and the T/C (dose: 400.0 mg/kg/injection, schedule: Q01DX001 (ip), vehicle: Klucel (hydroxypropylcellulose) (HPC)) was 100 % of control.
With Cc1nc(Sc2nc3ccc([N+](=O)[O-])cc3s2)sc1C the T/C [22] was 87 % of control, the T/C [1] was 96 % of control and the T/C [2] was 105 % of control. For the same compound, the T/C [3] was 96 % of control.
Cc1ccc(N(O)C(=O)c2ccccc2)c(C)c1 was tested, and the T/C [15] was 102 % of control and 98 % of control, the T/C [16] was 92 % of control and 93 % of control and the T/C [17] was 123 % of control and 98 % of control. For the same compound, the T/C (dose: 400.0 mg/kg/injection, schedule: Q01DX005 (ip), vehicle: saline with Tween-80) was 111 % of control.
O=[N+]([O-])c1ccc(Oc2c3ccccc3nc3ccccc23)cc1 was tested, and the T/C [15] was 90 % of control, the T/C [16] was 90 % of control and the T/C [17] was 93 % of control.
With CC(O)c1cc(C(C)O)cc(C(C)O)c1 (stereo unspecified) the T/C [22] was 95 % of control, the T/C [1] was 101 % of control and the T/C [2] was 99 % of control.
With CONc1ccn(C2OC(CO)C(O)C2O)c(=O)n1 (stereo unspecified) the T/C (dose: 12.5 mg/kg/injection, schedule: Q01DX009 (ip), vehicle: saline) was 101 % of control and 104 % of control, the T/C [23] was 112 % of control and 117 % of control and the T/C [22] was 99 % of control and 113 % of control. The T/C [1] was 112 % of control.
With CCC(C)C(NC(=O)OC(C)(C)C)C(=O)O (stereo unspecified) the T/C [19] was 103 % of control, the T/C [20] was 100 % of control and the T/C [21] was 100 % of control.
In the case of CN1[C@@H](CC(=O)c2ccccc2)CCC[C@H]1CC(=O)c1ccccc1, the T/C [23] is reported as 95 % of control, the T/C [22] is reported as 103 % of control and the T/C [1] is reported as 102 % of control.
With CS(=O)(=O)OCCC[Se]Cc1ccccc1C[Se]CCCOS(C)(=O)=O the T/C [4] was 93 % of control and the T/C [5] was 91 % of control.
For CC(=O)O[C@@H]1[C@H](C)[C@@H]2CC(=O)O[C@@H]3[C@H](OC(=O)C=C(C)C)[C@H]4C(C)=CC(=O)[C@@H](OC(C)=O)[C@]4(C)[C@H]4[C@@]1(O)OC[C@@]342, the T/C (dose: 1.25 mg/kg/injection, schedule: Q01DX009 (ip), vehicle: Klucel (hydroxypropylcellulose) (HPC)) was 104 % of control, the T/C (dose: 2.5 mg/kg/injection, schedule: Q01DX009 (ip), vehicle: Klucel (hydroxypropylcellulose) (HPC)) was 107 % of control and the T/C (dose: 5.0 mg/kg/injection, schedule: Q01DX009 (ip), vehicle: Klucel (hydroxypropylcellulose) (HPC)) was 107 % of control. The T/C (dose: 10.0 mg/kg/injection, schedule: Q01DX009 (ip), vehicle: Klucel (hydroxypropylcellulose) (HPC)) was 107 % of control.
